# ChEMBL document CHEMBL2439969, “Replacement of Thr32 and Gln34 in the C-terminal neuropeptide Y fragment 25-36 by cis-cyclobutane and cis-cyclopentane β-amino acids shifts selectivity toward the Y(4) receptor” (J Med Chem, 2013)
# Residues, ends and D or L forms follow the SMILES beside them.
# Legend:
# [1] = target: T1, Neuropeptide Y receptor type 5 (Homo sapiens, UniProt Q15761); assay: Displacement of Cy5-pNPY from human Y5 receptor expressed in human HEC-1B cells after 90 to 120 mins by flow cytometry; format: cell-based
# T1 sequence (Q15761 whole entry): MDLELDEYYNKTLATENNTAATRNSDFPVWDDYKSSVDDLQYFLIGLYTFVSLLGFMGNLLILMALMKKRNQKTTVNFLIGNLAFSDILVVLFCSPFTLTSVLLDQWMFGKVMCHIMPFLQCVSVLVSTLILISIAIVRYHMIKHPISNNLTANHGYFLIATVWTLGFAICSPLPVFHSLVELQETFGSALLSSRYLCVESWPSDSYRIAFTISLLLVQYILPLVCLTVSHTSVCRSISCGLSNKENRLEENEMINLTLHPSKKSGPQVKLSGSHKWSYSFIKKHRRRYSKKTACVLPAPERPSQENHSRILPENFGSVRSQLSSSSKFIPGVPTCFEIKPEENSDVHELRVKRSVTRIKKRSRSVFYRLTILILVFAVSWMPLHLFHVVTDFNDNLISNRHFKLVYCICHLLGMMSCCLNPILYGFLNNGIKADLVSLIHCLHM
# [2] = target: T2, Neuropeptide Y receptor type 2 (Homo sapiens, UniProt P49146); assay: Displacement of Cy5-pNPY from human Y2 receptor expressed in CHO cells after 90 to 120 mins by flow cytometry; format: cell-based
# T2 sequence (P49146 whole entry): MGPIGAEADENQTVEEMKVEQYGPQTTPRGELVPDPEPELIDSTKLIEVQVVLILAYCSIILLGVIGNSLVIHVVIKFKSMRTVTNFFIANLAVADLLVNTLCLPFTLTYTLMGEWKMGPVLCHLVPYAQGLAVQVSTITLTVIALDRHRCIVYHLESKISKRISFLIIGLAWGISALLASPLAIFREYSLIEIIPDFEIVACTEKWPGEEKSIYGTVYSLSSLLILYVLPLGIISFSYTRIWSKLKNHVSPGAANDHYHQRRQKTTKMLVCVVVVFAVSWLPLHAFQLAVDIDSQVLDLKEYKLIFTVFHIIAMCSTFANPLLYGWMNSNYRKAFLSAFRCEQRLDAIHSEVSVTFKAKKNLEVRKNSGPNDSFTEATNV
# [3] = target: T3, Neuropeptide Y receptor type 1 (Homo sapiens, UniProt P25929); assay: Displacement of Cy5-pNPY from human Y1 receptor expressed in HEL cells after 90 to 120 mins by flow cytometry; format: cell-based
# T3 sequence (P25929 whole entry): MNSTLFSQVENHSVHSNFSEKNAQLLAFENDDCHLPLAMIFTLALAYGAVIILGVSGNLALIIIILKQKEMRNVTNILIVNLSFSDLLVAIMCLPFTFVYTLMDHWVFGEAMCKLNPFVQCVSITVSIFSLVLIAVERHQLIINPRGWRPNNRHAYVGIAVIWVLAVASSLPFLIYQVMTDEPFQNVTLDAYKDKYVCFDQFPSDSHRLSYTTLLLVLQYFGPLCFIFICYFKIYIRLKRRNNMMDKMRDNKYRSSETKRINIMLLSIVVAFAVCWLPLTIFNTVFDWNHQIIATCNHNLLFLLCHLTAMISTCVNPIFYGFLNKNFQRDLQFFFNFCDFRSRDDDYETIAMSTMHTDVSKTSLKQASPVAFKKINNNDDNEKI
# [4] = target: T4, Neuropeptide Y receptor type 4 (Homo sapiens, UniProt P50391); assay: Agonist activity at human Y4 receptor expressed in sf9 cells assessed as hydrolysis of [gamma-33P]GTP after 2 mins by scintillation counting analysis
# [5] = target: T4, Neuropeptide Y receptor type 4; assay: Displacement of Cy5-[K4]hPP from human Y4 receptor expressed in CHO cells after 90 to 120 mins by flow cytometry; format: cell-based
# T4 sequence (P50391 whole entry): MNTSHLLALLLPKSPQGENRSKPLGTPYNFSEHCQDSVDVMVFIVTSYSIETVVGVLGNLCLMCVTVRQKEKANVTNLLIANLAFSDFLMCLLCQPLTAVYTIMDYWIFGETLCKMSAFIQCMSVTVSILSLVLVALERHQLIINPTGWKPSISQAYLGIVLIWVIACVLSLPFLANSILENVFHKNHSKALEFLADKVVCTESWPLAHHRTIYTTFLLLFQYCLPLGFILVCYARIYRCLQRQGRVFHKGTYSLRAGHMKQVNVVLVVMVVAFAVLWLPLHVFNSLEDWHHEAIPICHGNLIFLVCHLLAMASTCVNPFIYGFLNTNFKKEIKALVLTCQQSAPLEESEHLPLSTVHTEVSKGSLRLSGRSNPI
Compound,Ki [1],Ki [2],Ki [3],EC50 [4],Ki [5]
CC[C@H](C)[C@H](NC(=O)[C@H](Cc1ccc(O)cc1)NC(=O)[C@H](Cc1cnc[nH]1)NC(=O)[C@H](CCCNC(=N)N)NC(C)=O)C(=O)N[C@@H](CC(N)=O)C(=O)N[C@@H](CC(C)C)C(=O)N[C@H](C(=O)N[C@H](C(=O)N[C@@H](CCCNC(=N)N)C(=O)N[C@H]1C[C@@H](C(=O)N[C@@H](CCCNC(=N)N)C(=O)N[C@@H](Cc2ccc(O)cc2)C(N)=O)C1(C)C)[C@@H](C)O)[C@@H](C)CC (HELM PEPTIDE1{[ac].R.H.Y.I.N.L.I.T.R.[CC1(C)[C@@H](N[*:1])C[C@H]1C(=O)[*:2]].R.Y.[am]}$$$$V2.0),> 1000 nM,> 1000 nM,> 1000 nM,,> 1000 nM
CC(=O)N[C@@H](Cc1ccc(O)cc1)C(=O)N[C@@H](CCCNC(=N)N)C(=O)N[C@H]1CCC[C@H]1C(=O)N[C@@H](CCCN=C(N)N)C(=O)N[C@@H](Cc1ccc(O)cc1)C(N)=O (HELM PEPTIDE1{[ac].Y.R.[O=C([C@@H]1CCC[C@@H]1N[*:1])[*:2]].R.Y.[am]}$$$$V2.0),> 1000 nM,> 1000 nM,> 1000 nM,94 nM,105 nM
CC[C@H](C)[C@H](NC(=O)[C@H](Cc1ccc(O)cc1)NC(=O)[C@H](Cc1cnc[nH]1)NC(=O)[C@H](CCCNC(=N)N)NC(C)=O)C(=O)N[C@@H](CC(N)=O)C(=O)N[C@@H](CC(C)C)C(=O)N[C@@H](CCCNC(=N)N)C(=O)N[C@H]1CC[C@H]1C(=O)N[C@@H](CCCNC(=N)N)C(=O)N[C@H]1CC[C@H]1C(=O)N[C@@H](CCCNC(=N)N)C(=O)N[C@@H](Cc1ccc(O)cc1)C(N)=O (HELM PEPTIDE1{[ac].R.H.Y.I.N.L.R.[O=C([C@@H]1CC[C@@H]1N[*:1])[*:2]].R.[O=C([C@@H]1CC[C@@H]1N[*:1])[*:2]].R.Y.[am]}$$$$V2.0),> 1000 nM,> 1000 nM,> 1000 nM,66 nM,35 nM
CC[C@H](C)[C@H](NC(=O)[C@H](Cc1ccc(O)cc1)NC(=O)[C@H](Cc1cnc[nH]1)NC(=O)[C@H](CCCNC(=N)N)NC(C)=O)C(=O)N[C@@H](CC(N)=O)C(=O)N[C@@H](CC(C)C)C(=O)N[C@H](C(=O)N[C@H](C(=O)N[C@@H](CCCNC(=N)N)C(=O)N[C@H]1CC[C@H]1C(=O)N[C@@H](CCCNC(=N)N)C(=O)N[C@@H](Cc1ccc(O)cc1)C(N)=O)[C@@H](C)O)[C@@H](C)CC (HELM PEPTIDE1{[ac].R.H.Y.I.N.L.I.T.R.[O=C([C@@H]1CC[C@@H]1N[*:1])[*:2]].R.Y.[am]}$$$$V2.0),> 1000 nM,> 1000 nM,> 1000 nM,122 nM,72 nM
Ac-RHYINLITRLRY-NH2,> 1000 nM,> 1000 nM,> 1000 nM,100 nM,157 nM
CC[C@H](C)[C@H](NC(=O)[C@H](Cc1ccc(O)cc1)NC(=O)[C@H](Cc1cnc[nH]1)NC(=O)[C@H](CCCN=C(N)N)NC(C)=O)C(=O)N[C@@H](CC(N)=O)C(=O)N[C@@H](CC(C)C)C(=O)N[C@H](C(=O)N[C@@H]1C[C@H](C(=O)N[C@@H](CCCN=C(N)N)C(=O)N[C@@H]2C[C@H](C(=O)N[C@@H](CCCNC(=N)N)C(=O)N[C@@H](Cc3ccc(O)cc3)C(N)=O)C2(C)C)C1(C)C)[C@@H](C)CC (HELM PEPTIDE1{[ac].R.H.Y.I.N.L.I.[CC1(C)[C@@H](C(=O)[*:2])C[C@H]1N[*:1]].R.[CC1(C)[C@@H](C(=O)[*:2])C[C@H]1N[*:1]].R.Y.[am]}$$$$V2.0),> 1000 nM,> 1000 nM,> 1000 nM,11 nM,0.53 nM
Ac-TRLRY-NH2,> 1000 nM,> 1000 nM,> 1000 nM,291 nM,490 nM
Ac-YRLRY-NH2,> 1000 nM,> 1000 nM,> 1000 nM,,

# Second part, the compound after the results:
Ki [1],Ki [2],Ki [3],EC50 [4],Ki [5],Compound
> 1000 nM,> 1000 nM,> 1000 nM,451 nM,509 nM,CC(=O)N[C@H](C(=O)N[C@@H](CCCNC(=N)N)C(=O)N[C@H]1CCC[C@H]1C(=O)N[C@@H](CCCNC(=N)N)C(=O)N[C@@H](Cc1ccc(O)cc1)C(N)=O)[C@@H](C)O (HELM PEPTIDE1{[ac].T.R.[O=C([C@@H]1CCC[C@@H]1N[*:1])[*:2]].R.Y.[am]}$$$$V2.0)
> 500 nM,217 nM,> 1000 nM,51 nM,14 nM,CCCC[C@H](NC(=O)[C@H](CC(N)=O)NC(=O)[C@@H](NC(=O)[C@H](Cc1ccc(O)cc1)NC(=O)[C@H](CCCNC(=N)N)NC(=O)[C@H](CCCNC(=N)N)NC(C)=O)[C@@H](C)CC)C(=O)N[C@@H](CC(C)C)C(=O)N[C@H](C(=O)N[C@@H](CCCNC(=N)N)C(=O)N[C@H]1CCC[C@H]1C(=O)N[C@@H](CCCNC(=N)N)C(=O)N[C@@H](Cc1ccc(O)cc1)C(N)=O)[C@@H](C)O (HELM PEPTIDE1{[ac].R.R.Y.I.N.[Nle].L.T.R.[O=C([C@@H]1CCC[C@@H]1N[*:1])[*:2]].R.Y.[am]}$$$$V2.0)
> 500 nM,> 1000 nM,> 1000 nM,48 nM,37 nM,CC[C@H](C)[C@H](NC(=O)[C@H](Cc1ccc(O)cc1)NC(=O)[C@H](Cc1cnc[nH]1)NC(=O)[C@H](CCCN=C(N)N)NC(C)=O)C(=O)N[C@@H](CC(N)=O)C(=O)N[C@@H](CC(C)C)C(=O)N[C@H](C(=O)N[C@H]1CCC[C@H]1C(=O)N[C@@H](CCCN=C(N)N)C(=O)N[C@H]1CCC[C@H]1C(=O)N[C@@H](CCCN=C(N)N)C(=O)N[C@@H](Cc1ccc(O)cc1)C(N)=O)[C@@H](C)CC (HELM PEPTIDE1{[ac].R.H.Y.I.N.L.I.[O=C([C@@H]1CCC[C@@H]1N[*:1])[*:2]].R.[O=C([C@@H]1CCC[C@@H]1N[*:1])[*:2]].R.Y.[am]}$$$$V2.0)
> 1000 nM,708 nM,> 1000 nM,284 nM,93 nM,CCCC[C@H](NC(=O)[C@H](CC(N)=O)NC(=O)[C@@H](NC(=O)[C@H](Cc1ccc(O)cc1)NC(=O)[C@H](CCCNC(=N)N)NC(=O)[C@H](CCCNC(=N)N)NC(C)=O)[C@@H](C)CC)C(=O)N[C@@H](CC(C)C)C(=O)N[C@H](C(=O)N[C@@H](CCCNC(=N)N)C(=O)N[C@H]1CC[C@H]1C(=O)N[C@@H](CCCNC(=N)N)C(=O)N[C@@H](Cc1ccc(O)cc1)C(N)=O)[C@@H](C)O (HELM PEPTIDE1{[ac].R.R.Y.I.N.[Nle].L.T.R.[O=C([C@@H]1CC[C@@H]1N[*:1])[*:2]].R.Y.[am]}$$$$V2.0)
> 1000 nM,> 1000 nM,> 1000 nM,76 nM,70 nM,CC[C@H](C)[C@H](NC(=O)[C@H](Cc1ccc(O)cc1)NC(=O)[C@H](CCCNC(=N)N)NC(=O)[C@H](CCCNC(=N)N)NC(C)=O)C(=O)N[C@@H](CC(N)=O)C(=O)N[C@@H](CC(N)=O)C(=O)N[C@@H](CC(C)C)C(=O)N[C@H](C(=O)N[C@@H](CCCNC(=N)N)C(=O)N[C@H]1CC[C@H]1C(=O)N[C@@H](CCCNC(=N)N)C(=O)N[C@@H](Cc1ccc(O)cc1)C(N)=O)[C@@H](C)O (HELM PEPTIDE1{[ac].R.R.Y.I.N.N.L.T.R.[O=C([C@@H]1CC[C@@H]1N[*:1])[*:2]].R.Y.[am]}$$$$V2.0)
